Reference: US20240400555A1 (Initial Therapeutics, Inc., priority 2023, published 2024)

The compounds below were run on MV-4-11 cells (assay: Cell Viability Assay in MV-4-11 Cells). Details: Homo sapiens, MV4-11, 72 h, MV-4-11 cells, 72 h, Cell-Titer Glo; read-out: IC50.
Format: cell-based
Procedure, shortened: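 Luminescent ATP read-out (CellTiter-Glo) after 72 h compound treatment of MV-4-11 leukaemia cells (7,000 per well, IMDM plus 10% FBS). Values expressed relative to DMSO control and derived by four-parameter non-linear regression.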

Row | IC50 [nM] | Structure (SMILES)
1 | 460 | CC(C)(O)c1cccc(-c2cc3c(N(C(=O)c4ccc(-n5nnc6cccnc65)cc4F)[C@@H]4CCCNC4)nccc3s2)c1 [Example 602, (R)-4-(3H-[1,2,3]triazolo[4,5-b]pyridin-3-yl)-2-fluoro-N-(2-(3-(2-hydroxypropan-2-yl)phenyl)thieno[3,2-c]pyridin-4-yl)-N-(piperidin-3-yl)benzamide]
2 | 1300 | O=C(NCCO)c1ccc2c(N(C(=O)c3ccc(-n4nnc5cccnc54)cc3F)[C@@H]3CCCNC3)nccc2c1 [Example 371, (R)-1-(4-(3H-[1,2,3]triazolo[4,5-b]pyridin-3-yl)-2-fluoro-N-(piperidin-3-yl)benzamido)-N-(2-hydroxyethyl) isoquinoline-6-carboxamide]
3 | 3600 | Cc1nnc(-c2ccc(C(=O)N(c3nccc4sc(C#CCCC(N)=O)cc34)[C@@H]3CCCNC3)c(F)c2)s1 [Example 817, N-[2-(5-amino-5-oxo-pent-1-ynyl)thieno[3,2-c]pyridin-4-yl]-2-fluoro-4-(5-methyl-1,3,4-thiadiazol-2-yl)-N-[(3R)-3-piperidyl]benzamide]
4 | 99 | Cc1noc(-c2ccc(C(=O)N(c3nccc4cc(F)cc(C)c34)[C@@H]3CCCNC3)cc2)n1 [Example 775, (R)—N-(6-fluoro-8-methylisoquinolin-1-yl)-4-(3-methyl-1,2,4-oxadiazol-5-yl)-N-(piperidin-3-yl)benzamide]
5 | 390 | Cc1cnc(-c2ccc3c(N(C(=O)c4ccc(-n5nnc6cccnc65)cc4F)[C@@H]4CCCNC4)nccc3c2)s1 [Example 574, (R)-4-(3H-[1,2,3]triazolo[4,5-b]pyridin-3-yl)-2-fluoro-N-(6-(5-methylthiazol-2-yl)isoquinolin-1-yl)-N-(piperidin-3-yl)benzamide]
6 | 770 | CC(C)NC(=O)c1ccc(-c2cc3c(N(C(=O)c4ccc(-c5cn(C)nn5)cc4F)[C@@H]4CCCNC4)nccc3s2)cc1 [Example 522, 2-fluoro-N-[2-[4-(isopropylcarbamoyl)phenyl]thieno[3,2-c]pyridin-4-yl]-4-(1-methyltriazol-4-yl)-N-[(3R)-3-piperidyl]benzamide]
7 | 180 | NC(=O)c1cccc(-c2cc3c(N(C(=O)c4ccc(-n5nnc6cccnc65)cc4F)[C@@H]4CCCNC4)nccc3s2)c1 [Example 452, N-[2-(3-carbamoylphenyl)thieno[3,2-c]pyridin-4-yl]-2-fluoro-N-[(3R)-3-piperidyl]-4-(triazolo[4,5-b]pyridin-3-yl)benzamide]
8 | 62 | [2H]C([2H])([2H])c1nnc(-c2ccc(C(=O)N(c3nccc4cc(OC)cc(C)c34)[C@@H]3CCCNC3)cn2)s1 [Example 905, N-(6-methoxy-8-methyl-1-isoquinolyl)-N-[(3R)-3-piperidyl]-6-[5-(trideuteriomethyl)-1,3,4-thiadiazol-2-yl]pyridine-3-carboxamide]
9 | 85 | COCCn1cc(-c2ccc(C(=O)N(c3nccc4scc(C)c34)[C@@H]3CCCNC3)c(F)c2)nn1 [Example 640, (R)-2-fluoro-4-(1-(2-methoxyethyl)-1H-1,2,3-triazol-4-yl)-N-(3-methylthieno[3,2-c]pyridin-4-yl)-N-(piperidin-3-yl)benzamide]
10 | > 2000 | O=C(c1ccc(Nc2ncccn2)cc1F)N(c1nccc2cc(F)ccc12)[C@@H]1CCCNC1 [Example 591, (R)-2-fluoro-N-(6-fluoroisoquinolin-1-yl)-N-(piperidin-3-yl)-4-(pyrimidin-2-ylamino)benzamide]
11 | 53 | CCn1cc(-c2ccc(C(=O)N(c3nccc4cc(F)cc(C)c34)[C@@H]3CCCNC3)c(F)c2)nn1 [Example 712, 4-(1-ethyltriazol-4-yl)-2-fluoro-N-(6-fluoro-8-methyl-1-isoquinolyl)-N-[(3R)-3-piperidyl]benzamide]
12 | 2400 | COC(=O)c1ccnc(Nc2ccc(C(=O)N(c3nccc4cccc(C)c34)[C@@H]3CCCNC3)c(F)c2)n1 [Example 400, methyl (R)-2-((3-fluoro-4-((8-methylisoquinolin-1-yl)(piperidin-3-yl)carbamoyl)phenyl)amino)pyrimidine-4-carboxylate]
13 | 25 | Cc1cc(C)c2c(N(C(=O)c3ccc(-c4cn(C)nn4)cc3F)[C@@H]3CCCNC3)nccc2c1 [Example 702, (R)—N-(6,8-dimethylisoquinolin-1-yl)-2-fluoro-4-(1-methyl-1H-1,2,3-triazol-4-yl)-N-(piperidin-3-yl)benzamide]
14 | 860 | Cc1cccc2ccnc(N(C(=O)N3CCC[C@@H](n4nc(-c5ccc(Oc6ccccc6)cc5)c5c(N)ncnc54)C3)[C@@H]3CCCNC3)c12 [Example 340, (R)-3-(4-amino-3-(4-phenoxyphenyl)-1H-pyrazolo[3,4-d]pyrimidin-1-yl)-N-(8-methylisoquinolin-1-yl)-N—((R)-piperidin-3-yl)piperidine-1-carboxamide]
15 | 240 | Cc1cccc2ccnc(N(C(=O)c3ccc(-c4nn(C)nc4Br)cc3F)[C@@H]3CCCNC3)c12 [Example 390, 4-(5-bromo-2-methyl-triazol-4-yl)-2-fluoro-N-(8-methyl-1-isoquinolyl)-N-[(3R)-3-piperidyl] benzamide]
16 | > 10000 | Cc1nccc(N)c1-c1ccc(C(=O)N(c2nccc3cccc(C)c23)[C@@H]2CCCNC2)c(F)c1 [Example 361, (R)-4-(4-amino-2-methylpyridin-3-yl)-2-fluoro-N-(8-methylisoquinolin-1-yl)-N-(piperidin-3-yl)benzamide]
17 | 870 | Cn1cc(-c2ccc(C(=O)N(c3nccc4cc(-c5cnn(CCO)c5)ccc34)[C@@H]3CCCNC3)c(F)c2)nn1 [Example 492, (R)-2-fluoro-N-(6-(1-(2-hydroxyethyl)-1H-pyrazol-4-yl)isoquinolin-1-yl)-4-(1-methyl-1H-1,2,3-triazol-4-yl)-N-(piperidin-3-yl)benzamide]

The next lines start with the compound.

Row | Structure (SMILES) | IC50 [nM]
18 | O=C(c1ccc(-n2nnc3cccnc32)cc1F)N(c1nccc2sc(C#CCCCO)cc12)[C@@H]1CCCNC1 [Example 844, (R)-4-(3H-[1,2,3]triazolo[4,5-b]pyridin-3-yl)-2-fluoro-N-(2-(5-hydroxypent-1-yn-1-yl)thieno[3,2-c]pyridin-4-yl)-N-(piperidin-3-yl)benzamide] | 600
19 | CC(=O)Nc1ccc(-c2cc3c(N(C(=O)c4ccc(-c5cn(C)nn5)cc4F)[C@@H]4CCCNC4)nccc3s2)cc1 [Example 547, (R)—N-(2-(4-acetamidophenyl)thieno[3,2-c]pyridin-4-yl)-2-fluoro-4-(1-methyl-1H-1,2,3-triazol-4-yl)-N-(piperidin-3-yl)benzamide] | 480
20 | Cc1nnc(-c2ccc(C(=O)N(c3nccc4scc(C)c34)[C@@H]3CCCNC3)c(C)c2)s1 [Example 757, 2-methyl-4-(5-methyl-1,3,4-thiadiazol-2-yl)-N-(3-methylthieno[3,2-c]pyridin-4-yl)-N-[(3R)-3-piperidyl]benzamide] | 530
21 | CCc1nnc(-c2ccc(C(=O)N(c3nccc4cc(Cl)cc(C)c34)[C@@H]3CCCNC3)c(F)c2)o1 [Example 654, (R)—N-(6-chloro-8-methylisoquinolin-1-yl)-4-(5-ethyl-1,3,4-oxadiazol-2-yl)-2-fluoro-N-(piperidin-3-yl)benzamide] | 150
22 | NS(=O)(=O)c1ccc(-c2cc3c(N(C(=O)c4ccc(-n5nnc6cccnc65)cc4F)[C@@H]4CCCNC4)nccc3s2)cc1 [Example 414, 2-fluoro-N-[(3R)-3-piperidyl]-N-[2-(4-sulfamoylphenyl)thieno[3,2-c]pyridin-4-yl]-4-(triazolo[4,5-b]pyridin-3-yl)benzamide] | 220
23 | Cc1cc(C)c2c(N(C(=O)c3ccc(-c4nnc(C)s4)cn3)[C@@H]3CCCNC3)nccc2c1 [Example 701, (R)—N-(6,8-dimethylisoquinolin-1-yl)-5-(5-methyl-1,3,4-thiadiazol-2-yl)-N-(piperidin-3-yl)picolinamide] | 150
24 | O=C(c1ccc(-n2nnc3cccnc32)cc1F)N(c1nccc2cc(-c3ncco3)ccc12)[C@@H]1CCCNC1 [Example 366, (R)-4-(3H-[1,2,3]triazolo[4,5-b]pyridin-3-yl)-2-fluoro-N-(6-(oxazol-2-yl)isoquinolin-1-yl)-N-(piperidin-3-yl)benzamide] | 290
25 | Cn1cc(-c2ccc(C(=O)N(c3nccc4cc(F)ccc34)[C@@H]3CCCNC3)c(F)c2)nn1 [Example 469, (R)-2-fluoro-N-(6-fluoroisoquinolin-1-yl)-4-(1-methyl-1H-1,2,3-triazol-4-yl)-N-(piperidin-3-yl)benzamide] | 180
26 | Cc1nnc(-c2ccc(C(=O)N(c3nccc4cc(F)cc(C)c34)[C@@H]3CCCNC3)cn2)o1 [Example 918, N-(6-fluoro-8-methyl-1-isoquinolyl)-6-(5-methyl-1,3,4-oxadiazol-2-yl)-N-[(3R)-3-piperidyl]pyridine-3-carboxamide] | 170
27 | O=C(c1ccc(-n2nnc3cccnc32)cc1F)N(c1nccc2sc(-c3cnn(-c4ccccn4)c3)cc12)[C@@H]1CCCNC1 [Example 435, 2-fluoro-N-[(3R)-3-piperidyl]-N-[2-[1-(2-pyridyl)pyrazol-4-yl]thieno[3,2-c]pyridin-4-yl]-4-(triazolo[4,5-b]pyridin-3-yl)benzamide] | 300
28 | Cn1cc(-c2ccc(C(=O)N(c3nccc4sc(-c5ccc(C(O)C(F)(F)F)cc5)cc34)[C@@H]3CCCNC3)c(F)c2)nn1 (stereo partly drawn) [Example 605, 2-fluoro-4-(1-methyl-1H-1,2,3-triazol-4-yl)-N—((R)-piperidin-3-yl)-N-(2-(4-(2,2,2-trifluoro-1-hydroxyethyl)phenyl)thieno[3,2-c]pyridin-4-yl)benzamide] | 470
29 | Cc1cccc2ccnc(N(C(=O)c3ccc(Nc4nccc(N5CC[C@H](N(C)C)C5)n4)cc3F)[C@@H]3CCCNC3)c12 [Example 967, 4-({4-[(3S)-3-(dimethylamino)pyrrolidin-1-yl]pyrimidin-2-yl}amino)-2-fluoro-N-(8-methylisoquinolin-1-yl)-N-[(3R)-piperidin-3-yl]benzamide] | 48
30 | Cc1ncc(-c2cc(C)c3c(N(C(=O)c4ccc(-c5nnc(C)s5)cc4F)[C@@H]4CCCNC4)nccc3c2)s1 [Example 732, 2-fluoro-N-[8-methyl-6-(2-methylthiazol-5-yl)-1-isoquinolyl]-4-(5-methyl-1,3,4-thiadiazol-2-yl)-N-[(3R)-3-piperidyl]benzamide] | 49
